From ChEMBL document CHEMBL1201862, “PubChem BioAssay data set” (2004)
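Briefly, cells in 96-well plates were exposed to five compound concentrations for 48 h, and endpoints were estimated by linear interpolation. The concentration for 50% growth inhibition is given as GI50.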 The source made the active and inactive calls. No stated cut-off is given here; in the data, active = GI50 up to about 1.1 µM and inactive = higher.

Assays:
Assay in all cases: NCI-60 cell line screen, 48 h
MCF7 = test system: MCF7
IGROV-1 = test system: IGROV-1
TK-10 = test system: TK-10
M14 = test system: M14
MDA-MB-231 = test system: MDA-MB-231
T47D = test system: T47D
DU-145 = test system: DU-145
SN12C = test system: SN12C
MDA-N = test system: MDA-N
SK-MEL-5 = test system: SK-MEL-5
OVCAR-8 = test system: OVCAR-8
RPMI-8226 = test system: RPMI-8226
BT-549 = test system: BT-549
SF-268 = test system: SF-268
RXF 393 = test system: RXF 393
Malme-3M = test system: Malme-3M
SNB-75 = test system: SNB-75
HOP-62 = test system: HOP-62
NCI-H460 = test system: NCI-H460
HL-60 = test system: HL-60
NCI/ADR-RES = test system: NCI/ADR-RES
K562 = test system: K562
OVCAR-5 = test system: OVCAR-5
U-251 = test system: U-251
786-0 = test system: 786-0
Hs-578T = test system: Hs-578T
OVCAR-4 = test system: OVCAR-4
UO-31 = test system: UO-31
HOP-92 = test system: HOP-92
COLO 205 = test system: COLO 205
SK-OV-3 = test system: SK-OV-3
UACC-62 = test system: UACC-62
HCT-116 = test system: HCT-116
SK-MEL-28 = test system: SK-MEL-28
MOLT-4 = test system: MOLT-4
NCI-H23 = test system: NCI-H23
SNB-19 = test system: SNB-19
KM12 = test system: KM12
LOX IMVI = test system: LOX IMVI
SR = test system: SR
NCI-H522 = test system: NCI-H522
UACC-257 = test system: UACC-257
SW-620 = test system: SW-620
SF-539 = test system: SF-539
PC-3 = test system: PC-3
HCT-15 = test system: HCT-15
SF-295 = test system: SF-295
SK-MEL-2 = test system: SK-MEL-2
ACHN = test system: ACHN
CCRF-CEM = test system: CCRF-CEM
A549 = test system: A549
HT-29 = test system: HT-29

With `Cc1ccc(S(=O)(=O)NC(=O)NC(CO)C(=O)O)cc1` (configuration not stated) as the compound, how does the GI50 (MCF7) read?
The GI50 was > 100 µM (inactive).

What about the GI50 (IGROV-1) of the same compound?
Its GI50 is > 100 µM (inactive).

What about the GI50 (TK-10) of the same compound?
The GI50 was > 100 µM (inactive).

And the GI50 (M14)?
Its GI50 is > 100 µM (inactive).

And the GI50 (MDA-MB-231)?
Its GI50 is > 100 µM (inactive).

What about the GI50 (T47D) of the same compound?
Its GI50 is > 100 µM (inactive).

What about the GI50 (DU-145) of the same compound?
The GI50 was > 100 µM (inactive).

And the GI50 (SN12C)?
Its GI50 is > 100 µM (inactive).

What about the GI50 (MDA-N) of the same compound?
Its GI50 is > 100 µM (inactive).

And the GI50 (SK-MEL-5)?
Its GI50 is > 100 µM (inactive).

What about the GI50 (OVCAR-8) of the same compound?
The GI50 was > 100 µM (inactive).

And the GI50 (RPMI-8226)?
The GI50 was > 100 µM (inactive).

What about the GI50 (BT-549) of the same compound?
The GI50 was > 100 µM (inactive).

What about the GI50 (SF-268) of the same compound?
Its GI50 is > 100 µM (inactive).

And the GI50 (RXF 393)?
Its GI50 is > 100 µM (inactive).

What about the GI50 (Malme-3M) of the same compound?
The GI50 was > 100 µM (inactive).

And the GI50 (SNB-75)?
Its GI50 is > 100 µM (inactive).

What about the GI50 (HOP-62) of the same compound?
Its GI50 is > 100 µM (inactive).

And the GI50 (NCI-H460)?
The GI50 was > 100 µM (inactive).

What about the GI50 (HL-60) of the same compound?
The GI50 was > 100 µM (inactive).

And the GI50 (NCI/ADR-RES)?
The GI50 was > 100 µM (inactive).

What about the GI50 (K562) of the same compound?
The GI50 was > 100 µM (inactive).

And the GI50 (OVCAR-5)?
Its GI50 is > 100 µM (inactive).

What about the GI50 (U-251) of the same compound?
The GI50 was > 100 µM (inactive).

What about the GI50 (786-0) of the same compound?
The GI50 was > 100 µM (inactive).

And the GI50 (Hs-578T)?
Its GI50 is > 100 µM (inactive).

What about the GI50 (OVCAR-4) of the same compound?
The GI50 was > 100 µM (inactive).

What about the GI50 (UO-31) of the same compound?
Its GI50 is > 100 µM (inactive).

And the GI50 (HOP-92)?
Its GI50 is > 100 µM (inactive).

And the GI50 (COLO 205)?
The GI50 was > 100 µM (inactive).

And the GI50 (SK-OV-3)?
Its GI50 is > 100 µM (inactive).

What about the GI50 (UACC-62) of the same compound?
Its GI50 is > 100 µM (inactive).

What about the GI50 (HCT-116) of the same compound?
Its GI50 is > 100 µM (inactive).

What about the GI50 (SK-MEL-28) of the same compound?
Its GI50 is > 100 µM (inactive).

And the GI50 (MOLT-4)?
The GI50 was > 100 µM (inactive).

What about the GI50 (NCI-H23) of the same compound?
The GI50 was > 100 µM (inactive).

And the GI50 (SNB-19)?
Its GI50 is > 100 µM (inactive).

What about the GI50 (KM12) of the same compound?
Its GI50 is > 100 µM (inactive).

And the GI50 (LOX IMVI)?
Its GI50 is > 100 µM (inactive).

And the GI50 (SR)?
The GI50 was > 100 µM (inactive).

And the GI50 (NCI-H522)?
The GI50 was > 100 µM (inactive).

And the GI50 (UACC-257)?
Its GI50 is > 100 µM (inactive).

What about the GI50 (SW-620) of the same compound?
The GI50 was > 100 µM (inactive).

What about the GI50 (SF-539) of the same compound?
The GI50 was > 100 µM (inactive).

And the GI50 (PC-3)?
Its GI50 is > 100 µM (inactive).

And the GI50 (HCT-15)?
The GI50 was > 100 µM.

What about the GI50 (SF-295) of the same compound?
Its GI50 is > 100 µM (inactive).

And the GI50 (SK-MEL-2)?
Its GI50 is > 100 µM (inactive).

And the GI50 (ACHN)?
The GI50 was > 100 µM (inactive).

What about the GI50 (CCRF-CEM) of the same compound?
The GI50 was > 100 µM (inactive).

And the GI50 (A549)?
Its GI50 is > 100 µM (inactive).

What about the GI50 (HT-29) of the same compound?
Its GI50 is > 100 µM (inactive).
